pIC50: −log10 of the molar value. Counter-ions that a name gives are not always drawn.
Key:
hNav1.7 [1] = target: T1, hNav1.7 (Homo sapiens (Human), UniProt Q15858); test: Tritiated compound binding to membranes from cells expressing hNav1.7 and the β1 subunit, competitive binding (LBA, Ex. 243A); settings: 100 pM [3H]compound, 18 h, room temperature
Target sequence in this assay (Q15858 whole entry, looked up): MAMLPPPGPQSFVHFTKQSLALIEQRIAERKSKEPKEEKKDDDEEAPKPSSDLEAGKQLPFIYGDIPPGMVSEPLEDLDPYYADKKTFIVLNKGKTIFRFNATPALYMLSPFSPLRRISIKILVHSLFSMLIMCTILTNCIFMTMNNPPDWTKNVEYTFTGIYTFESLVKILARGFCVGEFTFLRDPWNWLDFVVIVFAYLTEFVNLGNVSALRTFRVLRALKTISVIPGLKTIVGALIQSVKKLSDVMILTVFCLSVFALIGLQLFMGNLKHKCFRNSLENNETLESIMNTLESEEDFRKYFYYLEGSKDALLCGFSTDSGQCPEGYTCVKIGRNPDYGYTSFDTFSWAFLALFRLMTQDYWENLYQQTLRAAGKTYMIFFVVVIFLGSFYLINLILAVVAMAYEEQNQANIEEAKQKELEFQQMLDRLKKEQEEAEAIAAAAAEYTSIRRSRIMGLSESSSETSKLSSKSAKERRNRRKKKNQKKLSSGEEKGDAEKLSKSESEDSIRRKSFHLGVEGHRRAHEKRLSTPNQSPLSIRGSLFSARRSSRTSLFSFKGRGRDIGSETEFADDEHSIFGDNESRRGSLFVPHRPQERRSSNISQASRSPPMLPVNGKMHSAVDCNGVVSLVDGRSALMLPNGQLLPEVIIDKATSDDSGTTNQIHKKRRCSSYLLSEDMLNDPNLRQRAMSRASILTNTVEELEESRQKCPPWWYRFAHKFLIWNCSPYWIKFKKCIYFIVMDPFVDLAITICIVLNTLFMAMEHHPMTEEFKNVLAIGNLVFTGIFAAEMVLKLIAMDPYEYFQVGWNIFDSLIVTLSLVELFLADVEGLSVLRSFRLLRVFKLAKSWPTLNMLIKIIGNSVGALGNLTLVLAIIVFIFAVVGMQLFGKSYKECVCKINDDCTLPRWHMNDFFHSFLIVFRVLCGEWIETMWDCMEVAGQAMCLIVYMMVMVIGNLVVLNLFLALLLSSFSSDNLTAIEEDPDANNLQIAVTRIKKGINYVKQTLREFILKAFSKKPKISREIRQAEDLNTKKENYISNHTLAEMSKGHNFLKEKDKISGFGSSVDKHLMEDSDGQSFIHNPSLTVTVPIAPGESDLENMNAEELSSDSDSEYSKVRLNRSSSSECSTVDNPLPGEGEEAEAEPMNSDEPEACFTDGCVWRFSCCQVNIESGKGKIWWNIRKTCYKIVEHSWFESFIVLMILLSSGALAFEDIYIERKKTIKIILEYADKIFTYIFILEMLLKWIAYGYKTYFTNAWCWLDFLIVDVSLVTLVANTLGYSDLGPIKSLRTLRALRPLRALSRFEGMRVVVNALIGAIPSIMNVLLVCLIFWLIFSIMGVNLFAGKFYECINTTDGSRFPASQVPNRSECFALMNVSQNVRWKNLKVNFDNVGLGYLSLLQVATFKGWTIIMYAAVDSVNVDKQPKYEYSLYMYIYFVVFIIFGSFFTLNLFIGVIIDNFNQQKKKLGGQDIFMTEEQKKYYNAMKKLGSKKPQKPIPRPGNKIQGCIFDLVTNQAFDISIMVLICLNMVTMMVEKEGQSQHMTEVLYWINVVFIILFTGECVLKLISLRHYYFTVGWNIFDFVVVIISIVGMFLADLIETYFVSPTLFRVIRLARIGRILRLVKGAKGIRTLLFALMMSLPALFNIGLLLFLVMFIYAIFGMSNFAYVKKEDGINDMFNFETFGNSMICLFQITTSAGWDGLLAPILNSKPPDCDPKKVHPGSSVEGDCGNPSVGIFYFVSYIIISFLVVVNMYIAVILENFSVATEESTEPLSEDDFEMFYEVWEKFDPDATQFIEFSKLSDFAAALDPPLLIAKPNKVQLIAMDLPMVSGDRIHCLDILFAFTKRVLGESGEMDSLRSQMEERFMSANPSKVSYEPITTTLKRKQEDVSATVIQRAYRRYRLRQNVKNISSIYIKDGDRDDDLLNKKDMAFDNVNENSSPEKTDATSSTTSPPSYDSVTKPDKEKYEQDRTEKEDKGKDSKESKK
Target sequence in this assay (Q07699 whole entry partner, looked up): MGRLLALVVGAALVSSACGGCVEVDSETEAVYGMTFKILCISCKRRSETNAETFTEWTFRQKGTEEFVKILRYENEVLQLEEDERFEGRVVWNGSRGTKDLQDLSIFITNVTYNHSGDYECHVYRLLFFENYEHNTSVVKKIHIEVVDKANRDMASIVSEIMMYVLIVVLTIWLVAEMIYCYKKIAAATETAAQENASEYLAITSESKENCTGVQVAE

hNav1.7 [2] = target: T1, hNav1.7; test: Patch voltage clamp electrophysiology assay (EP), Syncropatch 384PE, CHO cells expressing Nav1.7; assay type: cell-based; settings: holding potential -50 mV; […] compound incubation; read-out: EP_SP hNav1.7 (Ex. 243B) IC50
Procedure, shortened: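 Automated whole-cell patch clamp on CHO cells stably expressing human Nav1.7, CsCl/EGTA internal and NMDG/80 mM Na+ external (pH 7.4). From −50 mV holding, −10 mV step, 20 ms recovery at −150 mV, then second −10 mV pulse where block is measured; inhibition after 7.5 min compound incubation.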
Target sequence in this assay (Q15858 other isoform, or with tags, fused parts or gaps): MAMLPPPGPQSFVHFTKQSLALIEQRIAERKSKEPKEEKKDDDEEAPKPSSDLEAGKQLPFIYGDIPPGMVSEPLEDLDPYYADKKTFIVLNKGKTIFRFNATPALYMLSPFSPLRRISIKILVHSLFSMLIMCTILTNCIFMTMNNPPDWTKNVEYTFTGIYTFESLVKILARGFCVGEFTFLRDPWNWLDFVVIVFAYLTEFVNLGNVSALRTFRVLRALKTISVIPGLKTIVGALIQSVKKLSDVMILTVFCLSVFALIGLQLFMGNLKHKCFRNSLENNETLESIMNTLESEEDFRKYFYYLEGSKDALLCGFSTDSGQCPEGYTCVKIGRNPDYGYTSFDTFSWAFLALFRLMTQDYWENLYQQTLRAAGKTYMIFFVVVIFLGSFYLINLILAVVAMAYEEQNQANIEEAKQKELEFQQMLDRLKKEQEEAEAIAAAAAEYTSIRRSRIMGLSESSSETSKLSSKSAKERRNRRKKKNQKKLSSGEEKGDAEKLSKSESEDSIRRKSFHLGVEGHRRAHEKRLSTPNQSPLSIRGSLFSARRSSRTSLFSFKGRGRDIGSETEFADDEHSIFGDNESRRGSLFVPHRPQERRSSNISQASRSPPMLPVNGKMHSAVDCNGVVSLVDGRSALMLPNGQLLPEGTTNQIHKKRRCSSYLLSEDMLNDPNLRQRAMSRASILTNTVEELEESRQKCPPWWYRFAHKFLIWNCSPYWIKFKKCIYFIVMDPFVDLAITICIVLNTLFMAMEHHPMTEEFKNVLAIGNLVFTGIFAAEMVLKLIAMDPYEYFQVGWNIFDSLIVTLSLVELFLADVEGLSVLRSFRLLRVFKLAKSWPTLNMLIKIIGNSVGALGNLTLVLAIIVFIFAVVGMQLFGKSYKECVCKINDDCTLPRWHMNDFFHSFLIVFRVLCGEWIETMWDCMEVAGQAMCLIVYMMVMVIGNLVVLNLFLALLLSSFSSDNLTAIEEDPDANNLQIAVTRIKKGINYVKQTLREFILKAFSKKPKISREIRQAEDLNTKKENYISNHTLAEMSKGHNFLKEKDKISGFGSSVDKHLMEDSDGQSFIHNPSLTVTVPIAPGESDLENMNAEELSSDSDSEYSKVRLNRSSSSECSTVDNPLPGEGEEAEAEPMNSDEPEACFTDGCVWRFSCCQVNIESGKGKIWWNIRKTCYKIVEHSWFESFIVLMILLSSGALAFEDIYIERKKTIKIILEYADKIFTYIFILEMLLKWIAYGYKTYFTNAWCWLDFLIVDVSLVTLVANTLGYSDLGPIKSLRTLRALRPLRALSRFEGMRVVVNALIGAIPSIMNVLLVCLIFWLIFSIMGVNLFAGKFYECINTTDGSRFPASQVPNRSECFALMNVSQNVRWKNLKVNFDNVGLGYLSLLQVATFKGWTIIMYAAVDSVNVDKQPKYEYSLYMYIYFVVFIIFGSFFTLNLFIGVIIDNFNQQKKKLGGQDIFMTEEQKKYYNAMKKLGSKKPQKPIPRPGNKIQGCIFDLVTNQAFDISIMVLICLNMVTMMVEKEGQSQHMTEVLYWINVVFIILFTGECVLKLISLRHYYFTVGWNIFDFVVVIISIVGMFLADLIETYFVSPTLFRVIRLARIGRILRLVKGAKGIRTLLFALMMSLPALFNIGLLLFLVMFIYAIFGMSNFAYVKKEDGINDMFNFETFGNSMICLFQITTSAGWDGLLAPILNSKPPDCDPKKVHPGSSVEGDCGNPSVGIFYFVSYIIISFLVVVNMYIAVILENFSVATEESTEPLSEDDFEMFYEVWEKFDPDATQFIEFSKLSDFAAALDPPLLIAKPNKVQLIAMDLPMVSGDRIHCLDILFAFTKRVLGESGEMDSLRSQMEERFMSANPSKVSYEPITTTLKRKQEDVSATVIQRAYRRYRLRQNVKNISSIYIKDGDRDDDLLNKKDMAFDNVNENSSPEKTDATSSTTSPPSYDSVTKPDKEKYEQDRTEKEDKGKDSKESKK

hNav1.7 [3] = target: T1, hNav1.7; test: Tritiated compound binding to membranes from cells expressing hNav1.7 and the β1 subunit, modified protocol (LBA, Ex. 243B); settings: 300 pM [3H]compound, room temperature, read-out: Nav1.7 LBA (Ex. 243B) IC50
Target sequence in this assay (Q15858 whole entry, looked up): as the sequence (Q15858 whole entry, looked up) above
Target sequence in this assay (Q07699 whole entry partner, looked up): as the sequence (Q07699 whole entry partner, looked up) above

[4] = read-out: Nav1.7 LBA (Ex. 243A) IC50
[5] = read-out: Nav1.7 (LBA) (Ex. 243A)

SMILES | pIC50 (hNav1.7 [1]; [4]) | pIC50 (hNav1.7 [2]) | pIC50 (hNav1.7 [3]) | pIC50 (hNav1.7 [1]; [5])
O=S(=O)(Nc1nccs1)c1cc(Cl)c(N[C@H]2CCCC[C@@H]2N2CCCC2)cc1F [Example 30, 5-chloro-2-fluoro-4-(((1S,2S)-2-(pyrrolidin-1-yl)cyclohexyl)amino)-N-(thiazol-2-yl)benzenesulfonamide] | 8.01 | 8.01 |  | 
COCCN(C)[C@H]1CCCC[C@@H]1Nc1cc(F)c(S(=O)(=O)Nc2nccs2)cc1Cl [Example 32, 5-chloro-2-fluoro-4-(((1S,2S)-2-((2-methoxyethyl)(methyl)amino)cyclohexyl)amino)-N-(thiazol-2-yl)benzenesulfonamide formate] | 7.42 | 7.61 |  | 
CN(C1CNC1)[C@H]1CCCC[C@@H]1Nc1cc(F)c(S(=O)(=O)Nc2ccncn2)cc1Cl [Example 53, 4-(((1S,2S)-2-(azetidin-3-yl(methyl)amino)cyclohexyl)amino)-5-chloro-2-fluoro-N-(pyrimidin-4-yl)benzenesulfonamide] | 7.52 | 8.24 |  | 
CN1CC(N(C)[C@H]2CCCC[C@@H]2Nc2cc(F)c(S(=O)(=O)Nc3nccs3)cc2Cl)C1 [Example 41, 5-chloro-2-fluoro-4-(((1S,2S)-2-(methyl(1-methylazetidin-3-yl)amino)cyclohexyl)amino)-N-(thiazol-2-yl)benzenesulfonamide formate] | 8.35 | 8.47 |  | 
CN(CCO)[C@H]1CCCC[C@@H]1Nc1cc(F)c(S(=O)(=O)Nc2nccs2)cc1Cl [Example 38, 5-chloro-2-fluoro-4-(((1S,2S)-2-((2-hydroxyethyl)(methyl)amino)cyclohexyl)amino)-N-(thiazol-2-yl)benzenesulfonamide formate] | 8.30 | 8.51 | 7.46 | 
CN(C1CNC1)[C@H]1CCCC[C@@H]1Oc1cc(F)c(S(=O)(=O)Nc2nccs2)cc1Cl [Example 66, 4-(((1S,2S)-2-(azetidin-3-yl(methyl)amino)cyclohexyl)oxy)-5-chloro-2-fluoro-N-(thiazol-2-yl)benzenesulfonamide formate] | 8.68 | 8.54 | 8.11 | 
CN(C1CNC1)[C@H]1CCCC[C@@H]1Nc1cc(F)c(S(=O)(=O)Nc2nccs2)cc1Cl [Example 39, 4-(((1S,2S)-2-(azetidin-3-yl(methyl)amino)cyclohexyl)amino)-5-chloro-2-fluoro-N-(thiazol-2-yl)benzenesulfonamide dihydrochloride] | 8.73 | 8.85 | 7.89 | 
CN(C)[C@H]1CCCC[C@@H]1Nc1cc(F)c(S(=O)(=O)Nc2cccc(F)n2)cc1Cl [Example 35, 5-chloro-4-(((1S,2S)-2-(dimethylamino)cyclohexyl)amino)-2-fluoro-N-(6-fluoropyridin-2-yl)benzenesulfonamide] | 7.18 | 7.22 | 6.50 | 
CN1CC(N(C)[C@H]2CCCC[C@@H]2Nc2cc(F)c(S(=O)(=O)Nc3cccc(F)n3)cc2Cl)C1 [Example 63, 5-chloro-2-fluoro-N-(6-fluoropyridin-2-yl)-4-(((1S,2S)-2-(methyl(1-methylazetidin-3-yl)amino)cyclohexyl)amino)benzenesulfonamide] | 8.01 | 8.27 |  | 
O=S(=O)(Nc1nccs1)c1cc(Cl)c(N[C@H]2CCCC[C@@H]2NC2CCC2)cc1F [Example 16, 5-chloro-4-[[(1S,2S)-2-(cyclobutylamino)cyclohexyl]amino]-2-fluoro-N-thiazol-2-yl-benzenesulfonamide] |  |  |  | 6.49
CN(C)[C@H]1CCCC[C@@H]1Oc1cc(F)c(S(=O)(=O)Nc2nccs2)cc1C1CC1 [Example 24, 5-cyclopropyl-4-[(1S,2S)-2-(dimethylamino)cyclohexoxy]-2-fluoro-N-thiazol-2-yl-benzenesulfonamide] |  |  |  | 7.30
CN(C1COC1)[C@H]1CCCC[C@@H]1Nc1cc(F)c(S(=O)(=O)Nc2nccs2)cc1Cl [Example 97, 5-chloro-2-fluoro-4-(((1S,2S)-2-(methyl(oxetan-3-yl)amino)cyclohexyl)amino)-N-(thiazol-2-yl)benzenesulfonamide] | 7.44 |  |  | 
CN(C1CC1)[C@H]1CCCC[C@@H]1Nc1cc(F)c(S(=O)(=O)Nc2nccs2)cc1Cl [Example 19, 5-chloro-4-[[(1S,2S)-2-[cyclopropyl(methyl)amino]cyclohexyl]amino]-2-fluoro-N-thiazol-2-yl-benzenesulfonamide] |  |  |  | 7.35
CCCN[C@H]1CCCC[C@@H]1Nc1cc(F)c(S(=O)(=O)Nc2nccs2)cc1Cl [Example 34, 5-chloro-2-fluoro-4-(((1 S,2S)-2-(propylamino)cyclohexyl)amino)-N-(thiazol-2-yl)benzenesulfonamide] | 7.45 |  |  | 
CCN(C)[C@H]1CCCC[C@@H]1Nc1cc(F)c(S(=O)(=O)Nc2nccs2)cc1Cl [Example 18, 5-chloro-4-[[(1S,2S)-2-[ethyl(methyl)amino]cyclohexyl]amino]-2-fluoro-N-thiazol-2-yl-benzenesulfonamide] |  |  |  | 7.77
O=S(=O)(Nc1nccs1)c1cc(Cl)c(N[C@H]2CCCC[C@@H]2N2CCC(F)C2)cc1F (stereo partly drawn) [Example 104, 5-chloro-2-fluoro-4-(((1S,2S)-2-(3-fluoropyrrolidin-1-yl)cyclohexyl)amino)-N-(thiazol-2-yl)benzenesulfonamide] | 7.45 |  |  | 
CN[C@H]1CCCC[C@@H]1Nc1cc(F)c(S(=O)(=O)Nc2nccs2)cc1Cl [Example 3, 5-chloro-2-fluoro-4-(((1S,2S)-2-(methylamino)cyclohexyl)amino)-N-(thiazol-2-yl)benzenesulfonamide 2,2,2-trifluoroacetate] |  |  |  | 7.80
N[C@H]1CCCC[C@@H]1Nc1cc(F)c(S(=O)(=O)Nc2nccs2)cc1Cl [Example 1, 4-(((1S,2S)-2-aminocyclohexyl)amino)-5-chloro-2-fluoro-N-(thiazol-2-yl)benzenesulfonamide] |  |  |  | 6.71
CN(C1CNC1)[C@H]1CCCC[C@@H]1Nc1cc(F)c(S(=O)(=O)Nc2cccc(F)n2)cc1Cl [Example 55, 4-(((1S,2S)-2-(azetidin-3-yl(methyl)amino)cyclohexyl)amino)-5-chloro-2-fluoro-N-(6-fluoropyridin-2-yl)benzenesulfonamide] | 8.13 |  |  | 
CCN(CC)[C@H]1CCCC[C@@H]1Nc1cc(F)c(S(=O)(=O)Nc2nccs2)cc1Cl [Example 17, 5-chloro-4-[[(1S,2S)-2-(diethylamino)cyclohexyl]amino]-2-fluoro-N-thiazol-2-yl-benzenesulfonamide] |  |  |  | 6.63
CC(C)N(C)[C@H]1CCCC[C@@H]1Nc1cc(F)c(S(=O)(=O)Nc2nccs2)cc1Cl [Example 33, 5-chloro-2-fluoro-4-(((1S,2S)-2-(isopropyl(methyl)amino)cyclohexyl)amino)-N-(thiazol-2-yl)benzenesulfonamide] | 7.08 |  |  | 
CN(C)[C@@H]1CC=C(C(F)(F)F)C[C@H]1Nc1cc(F)c(S(=O)(=O)Nc2nccs2)cc1Cl [Example 48, 5-chloro-4-(((1R,6R)-6-(dimethylamino)-3-(trifluoromethyl)cyclohex-3-en-1-yl)amino)-2-fluoro-N-(thiazol-2-yl)benzenesulfonamide formate] | 6.90 |  |  | 
CN(C)[C@H]1CC[C@H](c2cccc(C(F)(F)F)c2)C[C@@H]1Nc1cc(F)c(S(=O)(=O)Nc2nccs2)cc1Cl [Example 87, 5-chloro-4-(((1S,2S,5S)-2-(dimethylamino)-5-(3-(trifluoromethyl)phenyl)cyclohexyl)amino)-2-fluoro-N-(thiazol-2-yl)benzenesulfonamide] | 9.27 |  |  | 
